Measurements from patent US20260297109A1, “COMPOUNDS AS SUMO ACTIVATING ENZYME INHIBITORS” (WIGEN BIOMEDICINE TECHNOLOGY (SHANGHAI) CO., LTD., priority 2022, published 2026).

Molecular target: T1, SAE (Homo sapiens, UniProt Q9UBT2)
T1 construct: endogenous in cells; host or cells: HCT116
T1 sequence (Q9UBT2 1-640): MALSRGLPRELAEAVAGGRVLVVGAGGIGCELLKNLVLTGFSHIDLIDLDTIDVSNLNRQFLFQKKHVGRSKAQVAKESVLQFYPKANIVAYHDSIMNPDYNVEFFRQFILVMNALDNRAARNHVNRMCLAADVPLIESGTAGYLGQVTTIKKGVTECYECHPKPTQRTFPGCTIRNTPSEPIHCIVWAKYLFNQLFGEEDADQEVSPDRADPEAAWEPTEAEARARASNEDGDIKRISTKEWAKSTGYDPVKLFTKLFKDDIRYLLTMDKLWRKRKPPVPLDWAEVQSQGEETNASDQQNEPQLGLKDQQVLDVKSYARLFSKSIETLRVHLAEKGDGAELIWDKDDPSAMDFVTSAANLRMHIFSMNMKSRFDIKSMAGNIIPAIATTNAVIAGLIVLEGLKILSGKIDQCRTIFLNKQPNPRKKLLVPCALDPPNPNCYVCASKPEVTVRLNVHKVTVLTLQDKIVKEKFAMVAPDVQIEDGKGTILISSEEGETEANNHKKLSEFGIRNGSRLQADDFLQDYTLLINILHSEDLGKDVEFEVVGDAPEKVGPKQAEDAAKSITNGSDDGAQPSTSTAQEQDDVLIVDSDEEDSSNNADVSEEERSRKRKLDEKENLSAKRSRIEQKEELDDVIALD
T1 sequence (Q9UBE0 1-346): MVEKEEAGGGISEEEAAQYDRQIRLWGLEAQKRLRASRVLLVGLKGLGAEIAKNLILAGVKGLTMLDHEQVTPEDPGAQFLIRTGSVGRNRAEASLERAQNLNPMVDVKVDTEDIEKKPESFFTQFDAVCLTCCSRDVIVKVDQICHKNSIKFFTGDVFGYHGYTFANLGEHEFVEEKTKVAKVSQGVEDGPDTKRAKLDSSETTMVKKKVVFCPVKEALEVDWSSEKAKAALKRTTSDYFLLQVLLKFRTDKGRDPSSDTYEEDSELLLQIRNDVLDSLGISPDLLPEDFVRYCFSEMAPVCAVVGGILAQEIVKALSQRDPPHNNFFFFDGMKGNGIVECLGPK
Assay: SUMO IF: in vitro inhibitory activity assay against SAE in HCT116 cells (SUMO-2/3 immunofluorescence)
Format: cell-based
Conditions: class symbols, 6 h at 37° C.
Outline: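 HCT116 cells were treated with compound for 6 h at 37 °C, then PFA-fixed, Triton-permeabilised and BSA-blocked. They were stained overnight at 4 °C with anti-SUMO-2/3 (18H8) rabbit mAb (1:400), then with FITC anti-rabbit IgG (1:300). Fluorescence versus DMSO gave inhibition rate and IC50.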

SMILES | IC50 [nM]
NS(=O)(=O)OC[C@H]1[C@H](F)[C@@H](Nc2ncncc2C(=O)c2cc3c(s2)CCC[C@@]32NC(=O)Cc3ccc(Cl)cc32)C[C@@H]1O [Compound 628] | > 200
NS(=O)(=O)OC[C@H]1[C@H](F)[C@@H](Nc2ncncc2C(=O)c2cc3c(s2)CCC[C@]32NC(=O)Cc3ccc(Cl)cc32)C[C@@H]1O [Compound 629] | > 200
NS(=O)(=O)OC[C@H]1[C@H](F)[C@@H](Nc2ncncc2C(=O)c2cc3c(s2)C(=O)CC32NCCc3ccc(Cl)cc32)C[C@@H]1O (stereo partly drawn) [Compound 630] | 50 to 200
NS(=O)(=O)OC[C@H]1[C@H](F)[C@@H](Nc2ncncc2C(=O)c2cc3c(s2)C(=O)C[C@@]32NCCc3ccc(Cl)cc32)C[C@@H]1O [Compound 631] | > 200
NS(=O)(=O)OC[C@H]1[C@H](F)[C@@H](Nc2ncncc2C(=O)c2cc3c(s2)C(=O)C[C@]32NCCc3ccc(Cl)cc32)C[C@@H]1O [Compound 632] | 50 to 200
NS(=O)(=O)CC[C@H]1[C@H](F)[C@@H](Nc2ncncc2C(=O)c2cc3c(s2)CCCC32NCCc3ccc(Cl)cc32)C[C@@H]1O (stereo partly drawn) [Compound 636] | > 200
NS(=O)(=O)CC[C@H]1[C@H](F)[C@@H](Nc2ncncc2C(=O)c2cc3c(s2)CCC[C@@]32NCCc3ccc(Cl)cc32)C[C@@H]1O [Compound 637] | > 200
NS(=O)(=O)CC[C@H]1[C@H](F)[C@@H](Nc2ncncc2C(=O)c2cc3c(s2)CCC[C@]32NCCc3ccc(Cl)cc32)C[C@@H]1O [Compound 638] | 50 to 200
NS(=O)(=O)CC[C@H]1[C@H](F)[C@@H](Nc2ncncc2C(=O)c2cc3c(s2)C=C[C@@]32NCCc3ccc(Cl)cc32)C[C@@H]1O [Compound 639] | > 200
NS(=O)(=O)CC[C@H]1[C@H](F)[C@@H](Nc2ncncc2C(=O)c2cc3c(s2)C=C[C@]32NCCc3ccc(Cl)cc32)C[C@@H]1O [Compound 640] | 50 to 200
NS(=O)(=O)CC[C@H]1[C@H](F)[C@@H](Nc2ncncc2C(=O)c2cc3c(s2)CC[C@@]32NCCc3ccc(Cl)cc32)C[C@@H]1O [Compound 641] | > 200
NS(=O)(=O)CC[C@H]1[C@H](F)[C@@H](Nc2ncncc2C(=O)c2cc3c(s2)CC[C@]32NCCc3ccc(Cl)cc32)C[C@@H]1O [Compound 642] | 50 to 200
COc1ccc2c(c1)[C@]1(CCCc3sc(C(=O)c4cncnc4N[C@H]4C[C@H](O)[C@@H](COS(N)(=O)=O)[C@@H]4F)cc31)NCC2 [Compound 643] | > 200
COc1ccc2c(c1)[C@@]1(CCCc3sc(C(=O)c4cncnc4N[C@H]4C[C@H](O)[C@@H](COS(N)(=O)=O)[C@@H]4F)cc31)NCC2 [Compound 644] | > 200
CCN1Cc2sc(C(=O)c3cncnc3N[C@H]3C[C@H](O)[C@@H](COS(N)(=O)=O)[C@@H]3F)cc2C2(C1)NCCc1ccc(Cl)cc12 (stereo partly drawn) [Compound 645] | ≤ 50
CC(C)N1Cc2sc(C(=O)c3cncnc3N[C@H]3C[C@H](O)[C@@H](COS(N)(=O)=O)[C@@H]3F)cc2C2(C1)NCCc1ccc(Cl)cc12 (stereo partly drawn) [Compound 648] | ≤ 50
NS(=O)(=O)OC[C@H]1[C@H](F)[C@@H](Nc2ncncc2C(=O)c2cc3c(s2)CN(CC(F)(F)F)CC32NCCc3ccc(Cl)cc32)C[C@@H]1O (stereo partly drawn) [Compound 651] | ≤ 50

Same assay, conditions: numeric values, 6 h at 37° C.

SMILES | IC50 [nM]
CCN1Cc2sc(C(=O)c3cncnc3N[C@H]3C[C@H](O)[C@@H](COS(N)(=O)=O)[C@@H]3F)cc2[C@@]2(C1)NCCc1ccc(Cl)cc12 [Compound 646] | > 1000
CCN1Cc2sc(C(=O)c3cncnc3N[C@H]3C[C@H](O)[C@@H](COS(N)(=O)=O)[C@@H]3F)cc2[C@]2(C1)NCCc1ccc(Cl)cc12 [Compound 647] | 19.9
CC(C)N1Cc2sc(C(=O)c3cncnc3N[C@H]3C[C@H](O)[C@@H](COS(N)(=O)=O)[C@@H]3F)cc2[C@@]2(C1)NCCc1ccc(Cl)cc12 [Compound 649] | > 1000
CC(C)N1Cc2sc(C(=O)c3cncnc3N[C@H]3C[C@H](O)[C@@H](COS(N)(=O)=O)[C@@H]3F)cc2[C@]2(C1)NCCc1ccc(Cl)cc12 [Compound 650] | 21.7
